This note sets out measurements from ChEMBL document CHEMBL4765379, “Synthesis and biological evaluation of diaryl urea derivatives designed as potential anticarcinoma agents using de novo structure-based lead optimization approach” (Eur J Med Chem, 2020).

Experiment [1] has as its system A549. Nature of the experiment: Antiproliferative activity against human A549 cells assessed as reduction in cell growth incubated for 48 hrs by MTT assay. The settings on record: A549, 48 h. The format is functional, cell-based.
The subject of experiment [2] is HT-29. Nature of the experiment: Antiproliferative activity against human HT-29 cells assessed as reduction in cell growth incubated for 48 hrs by MTT assay. The format is functional, cell-based. Conditions: HT-29, 48 h. On the technique in general: Tetrazolium dyes change colour on reduction, which living cells bring about.

Usually IC50 stands for the point on the concentration scale where inhibition reaches its midpoint. On to `O=C(Nc1ccc(OC(=O)c2ccccc2)cc1)Nc1ccc(Cl)c(C(F)(F)F)c1`, for which the values for the IC50 in experiment [1] and in experiment [2] were 30.1 µM and 151 µM, respectively.
For `O=C(Nc1ccccc1)Nc1ccc(OC(=O)Cc2ccccc2)cc1`, the figures for the half-inhibitory concentration (IC50) in experiment [1] and in experiment [2] were 153 µM and 185 µM, respectively.
In the same order, the values of `Cc1ccc(NC(=O)Nc2ccc(OC(=O)c3ccccc3)cc2)cc1` are 47.7 µM and 104 µM.
On to `O=C(Nc1ccccc1)Nc1ccc(OC(=O)c2ccc([N+](=O)[O-])cc2)cc1`, for which the IC50 came out at 120 µM in experiment [1] and 185 µM in experiment [2].
With `O=C(Nc1ccc(F)cc1)Nc1ccc(OC(=O)c2ccccc2)cc1`, the IC50 in experiment [1] came out at 29.7 µM; in experiment [2] it was 94.4 µM.
In the case of `O=C(Nc1ccccc1)Nc1ccc(NC(=O)c2ccccc2)cc1`, the results for the IC50 in experiment [1] and in experiment [2] were 23.9 µM and 12.7 µM, respectively.
For `O=C(Nc1ccc(OC(=O)c2cc3cc([N+](=O)[O-])ccc3s2)cc1)Nc1ccc(Oc2ccccc2)cc1`, in that order: 25.2 µM and 13.3 µM.
`O=C(Nc1ccccc1)Nc1ccc(OC(=O)c2ccccc2)cc1`: the concentration for half-maximal inhibition (IC50) was 81.2 µM in experiment [1] and 123 µM in experiment [2].
Turning to `O=C(Nc1ccc(Cl)cc1)Nc1ccc(OC(=O)c2ccccc2)cc1`, the IC50 in experiment [1] turned out to be 24.7 µM; in experiment [2] it was 56 µM.
